Earlier results, collected in patent US20060008520A1, “Delayed release formulations of 6-mercaptopurine” (priority 2004, published 2006).

- fraction of an oral dose absorbed: Approximately 50%
Structure (SMILES): Sc1ncnc2nc[nH]c12 [6-MP, 6-mercaptopurine]
